{"source": "patent US8790712B2", "about": "“Constitutional function-improving agents” (Cosmo Oil Co., Ltd., priority 2004, dated 2014)", "key": {"thymus cells": {"test_system": "thymus cells", "assay": "Thymus weight and number of thymus cells of aged mice (Example 2)", "type": "in vivo, mouse", "settings": "10 mg/kg orally once a day for 7 days; for The number of cells: thymus", "experimental": "Mice (35 to 45 weeks old, BALB/cAJc1) preliminary raised for 1 week were injected with 10 mg of ALA hydrochloride per 1 kg mouse body weight once a day for 7 days continuously. ALA hydrochloride was adjusted to a concentration of […] with distilled water and orally administered to the mice. After the test, each mouse was sacrificed and the weight of its thymus and the number of cells were measured. In addition, a subset test of lymphocytes was carried out using the obtained cells. The test was carried out using 5 mice per 1 plot, and their values were shown by average value. […] Also, since the cell of CD4-CD8+ was increased in the ALA-treated plot based on the subset test, it was confirmed that the cytotoxic T cell increases after its future differentiation, so that its immunological function improving ability was shown (Table 3). In addition, photographs of the thymus of untreated plot (un-administered group) and the thymus of ALA-treated plot (ALA-treated group) are shown in FIG. 1."}, "[1]": {"test_system": "Mice (35 to 45 weeks old, BALB/cAJc1)", "assay": "Migration distance in cage for 5 minutes (Example 4)", "type": "in vivo, mouse", "settings": "10 mg/kg orally once a day for 7 days; for Exercise quantity (m): migration distance in 5 minutes", "experimental": "Mice (35 to 45 weeks old, BALB/cAJc1) preliminary raised for 1 week were injected with 10 mg of ALA hydrochloride per 1 kg mouse body weight once a day for 7 days continuously. ALA hydrochloride was adjusted to a concentration of 0.5 g/ml with distilled water and orally administered to the mice. After the test, the mouse was put into a cage of 20 cm×20 cm in floor area, and its migration distance was measured for 5 minutes. The test was carried out using 5 male and 5 female mice, a total of 10 animals, for each plot, and the values were shown by average value. It was confirmed that the migration distance is long and the capacity for locomotion is improved in both cases of male and female in the ALA-treated plot."}, "[2]": {"test_system": "broiler primary chicks (Chunky)", "assay": "Body weight of broiler chicks fed ALA hydrochloride for 7 weeks (Example 9)", "type": "in vivo, chick", "description": "A total of 300 chicks, 150 chicks for females and males respectively, of broiler primary chicks (Chunky) were purchased. After the purchase, chicks having abnormality (weakness or dwarf) were excluded, and the rest were equipped with wing belts for individual identification and their body weights were individually measured. […] Using 15 female or male chicks (30 chicks in total) as 1 group, they were put into a Chick Gird arranged in a closed type barn, and warmed by arranging an infrared ray lamp for animal use. The Chick Gird was expanded along with the growth of chicks. The feed and drinking water were constantly provided. The test groups were set to a total of 3 groups containing a control group in which a control feed (a standard testing feed SDB No. 1 was used from the neonatal to 3 weeks old, or a standard testing feed SDB No. 2 from 3 weeks old to 7 weeks old, (both manufactured by Nippon Formula Feed Mfg Co., Ltd., Table 9) without adding ALA hydrochloride is provided, and 2 test groups of ALA-10 ppm treated group and ALA-50 ppm treated group in which 10 ppm or 50 ppm of ALA hydrochloride is added to the feed and provided, and 3 repetition plots were arranged for each group. The number of chicks to be tested in each test group was as shown in Table 10. The test period was set to 7 weeks (7 weeks old) from the neonatal (start of the added feed provision), and total body weight of females or males was measured for each repetition plot at the time of the neonatal and at intervals of 1 week thereafter. In addition, about 2 ml of blood was collected from a brachial vein (basilic vein) of each of 18 chicks (3 female or male chicks/repetition) of each group at 3 weeks old and 7 weeks old, and about 1.5 ml thereof was subjected to a coagulation preventing treatment using heparin-lithium salt and then the blood plasma was separated to inspect the items of LDH, GOT (AST), γ-GTP, ALP, total protein, albumin, globulin, total cholesterol, triglyceride, glucose, uric acid, total bilirubin, uric acid, creatinine, calcium and inorganic phosphorus."}, "[3]": {"settings": "ALA-treated groups, 10 ppm or 50 ppm in feed, 7 weeks"}}, "data": [{"smiles": "NCC(=O)CCC(=O)O", "note": "[ALA, 5-aminolevulinic acid]", "values": [{"measurement": "Thymus", "setting": "thymus cells; female mice", "value": 0.044, "unit": "g"}, {"measurement": "Thymus", "setting": "thymus cells; male mice", "value": 0.034, "unit": "g"}, {"measurement": "The number of cells", "setting": "thymus cells; female mice", "value": "49.9 × 10^6"}, {"measurement": "The number of cells", "setting": "thymus cells; male mice", "value": "22.0 × 10^6"}, {"measurement": "Symptoms such as abnormal stimulation and action", "setting": "[1]; ALA-treated mice during the test", "value": "symptoms such as abnormal stimulation and action were not observed"}, {"measurement": "Exercise quantity (m)", "setting": "[1]; female mice", "value": 25.5, "unit": "m"}, {"measurement": "Exercise quantity (m)", "setting": "[1]; male mice", "value": 41, "unit": "m"}, {"measurement": "Growth (g), body weight", "setting": "[2]; 10 ppm in feed, 1 week", "value": 166.3, "unit": "g"}, {"measurement": "Growth (g), body weight", "setting": "[2]; 10 ppm in feed, 2 week", "value": 442.0, "unit": "g"}, {"measurement": "Growth (g), body weight", "setting": "[2]; 10 ppm in feed, 3 week", "value": 817.2, "unit": "g"}, {"measurement": "Growth (g), body weight", "setting": "[2]; 10 ppm in feed, 4 week", "value": 1402.7, "unit": "g"}, {"measurement": "Growth (g), body weight", "setting": "[2]; 10 ppm in feed, 5 week", "value": 2063.9, "unit": "g"}, {"measurement": "Growth (g), body weight", "setting": "[2]; 10 ppm in feed, 6 week", "value": 2736.4, "unit": "g"}, {"measurement": "Growth (g), body weight", "setting": "[2]; 10 ppm in feed, 7 week", "value": 3420.9, "unit": "g"}, {"measurement": "Growth (g), body weight", "setting": "[2]; 10 ppm in feed, neonatal", "value": 37.8, "unit": "g"}, {"measurement": "Growth (g), body weight", "setting": "[2]; 50 ppm in feed, 1 week", "value": 169.1, "unit": "g"}, {"measurement": "Growth (g), body weight", "setting": "[2]; 50 ppm in feed, 2 week", "value": 436.8, "unit": "g"}, {"measurement": "Growth (g), body weight", "setting": "[2]; 50 ppm in feed, 3 week", "value": 807.7, "unit": "g"}, {"measurement": "Growth (g), body weight", "setting": "[2]; 50 ppm in feed, 4 week", "value": 1400.8, "unit": "g"}, {"measurement": "Growth (g), body weight", "setting": "[2]; 50 ppm in feed, 5 week", "value": 2036.7, "unit": "g"}, {"measurement": "Growth (g), body weight", "setting": "[2]; 50 ppm in feed, 6 week", "value": 2731.5, "unit": "g"}, {"measurement": "Growth (g), body weight", "setting": "[2]; 50 ppm in feed, 7 week", "value": 3403.3, "unit": "g"}, {"measurement": "Growth (g), body weight", "setting": "[2]; 50 ppm in feed, neonatal", "value": 37.7, "unit": "g"}, {"measurement": "General conditions during the test period", "setting": "[2]; [3]", "value": "no abnormality was found in the general conditions"}, {"measurement": "Raising ratio and pathologic autopsy findings", "setting": "[2]; [3]", "value": "an abnormality considered to be due to its addition was not found"}]}]}
